“Also recorded” adds a separate entry of the source.
Key:
PANC-1 cells [1] = test: Exosome release from pancreatic cancer cells (NTA, Western blot); type: cell-based, human
Description: (§1) Human non-small cell lung cancer A549 cells and human pancreatic cancer PANC-1 cells were purchased from the Chinese Academy of Sciences Stem Cell Bank (Shanghai, China). […] Purification, characterization, and analysis of exosomes: To purify exosomes from cell culture supernatants, cells were cultured for 3 days in DMEM medium supplemented with 10% exosome-free FBS prepared by ultracentrifugation of regular FBS at 120,000 g for 16 h. Cell culture supernatants were collected and centrifuged at 500 g for 5 min and then at 2,000 g for 20 min to remove dead cells and cell debris. Then, large vesicles were removed by centrifugation at 12,000 g for 30 minutes. Crude exosomes were pelleted by ultracentrifugation of the supernatant at 110,000 g for 70 min (Backman Ti70), washed with PBS and filtered (0.2 μm). The pellet was then suspended and ultracentrifuged again at 110,000 g for 70 minutes. All ultracentrifugations were performed at 4° C. The size and number of exosomes were analyzed using an LM10 nanoparticle tracking system (NanoSight) equipped with a blue laser (405 nm). Transmission electron microscope (TEM) observation: The morphology of exosomes prepared from the culture supernatant was observed by transmission electron microscope (TEM). Exosome pellets were fixed overnight at 4° C. in 2% glutaraldehyde. Load a drop of 10 μL of the exosome suspension onto the Formvar/Carbon-coated TEM copper grid and let it stand for 20 min. Drain excess fluid. Samples were fixed with 1% uranyl acetate for 5 min, washed 8 times with double distilled water, and dried under incandescent lamp for 10 min, then examined with Tecnai G2 Spirit Bio TWIN transmission electron microscope (FEI, Hillsboro, USA, working voltage 120 kV). […] The lysate was centrifuged to remove insoluble material.

PANC-1 cells [2] = test: Wound healing assay; type: cell-based, human; conditions: different concentrations of C52, 24 h, dose-dependent
Description: Wound healing assay: Cells were seeded in 6-well plates containing complete medium and cultured at 37° C. in a humidified air environment containing 5% CO2. […] Then, the cells were washed 3 times with PBS, and then incubated with serum-free RPMI-1640 medium containing different concentrations of […] for 24 h. The wound area and migrated cells within the wound area were photographed using a phase-contrast microscope. The wound area was measured using Image J software.

DSS-induced colitis mice = test: DSS-induced colitis mouse model; type: in vivo; conditions: 3 mg/kg C52 intragastric, 14 days
Description: Male BALB/c mice aged 6 to 7 weeks were given 2.8% DSS (Yisheng Biotechnology Co., Ltd., Shanghai) to induce ulcerative colitis through drinking water, and the model was established continuously for 7 days. From the first day of modeling, 3 mg/kg of […] or 300 mg/kg of the positive drug mesalamine (5'-aminosalicylic acid, 5-ASA) was given by intragastric administration, and continued after the modeling 7 days. The model group was given the same volume of solvent every day. The normal control group was fed routinely without any treatment. From the first day of modeling, the animals in each group were weighed every day, and the health condition of the mice, appearance of feces and hematochezia were recorded. When the body weight of the mice lost more than 25% during the modeling process, the animals were euthanized in time. After 14 days of administration of […], mice in each group were sacrificed by vertebral dislocation. The colon was harvested, photographed and its length measured. The colon near the rectum was cut and stored in 4% paraformaldehyde ([…] Biotechnology Co., Ltd., Wuhan) for HE staining to observe the histopathological changes of the colon. Mesenteric lymph nodes were collected for flow cytometric detection of the proportion of Treg cells.

[3] = system: A549, AGS, U87, SMMC-7721, HUH7; test: Cancer cell growth in vitro; type: cell-based, human; conditions: any concentration, highest 10 μM
Description: (§2) Cell culture: Human non-small cell lung cancer A549 cells, human pancreatic cancer PANC-1 cells, human glioma U87 cells, human liver cancer HUH7 cells and SMMC-7721 cells, and human gastric cancer AGS cells were purchased from ATCC or Stem Cell Bank of Chinese Academy of Sciences (Shanghai, China). Cells were cultured in RPMI1640 medium containing 10% fetal bovine serum (Sigma, USA), 100 U penicillin and 100 μg/ml streptomycin (Gibco, USA) at 37° C. in a humidified atmosphere containing 5% CO2.

EAE mice = test: MOG-induced experimental autoimmune encephalomyelitis (EAE) mouse model; type: in vivo
[4] = system: 84 selected human cancer-associated proteins in PANC-1 cells; conditions: 3 μM C52 or 5 μM C52 for 48 h
Description: as §2
A total of 200 g of lysate protein was run on one Human XL Tumor Array (R&D Systems, Abingdon, UK). Followed the manufacturer's instructions exactly. The protein chip membrane was covered with plastic film and exposed to X-ray film for 8 minutes. Optical density on exposed X-ray film (hu.q, HQ-320XT, China) was quantified using a transmission mode scanner (EPSON, Beijing, China) and analyzed using Image J software.

Huh7-NC12 cells = test: Exosome release from liver cancer cells (luciferase exosome reporter, ExoHTP platform); type: cell-based; conditions: 48 h, luciferase activity of exosomes purified from supernatant
BALB/c mice = test: Circulating plasma exosomes in mice after oral dosing; type: in vivo, mouse; conditions: 100 mg/kg once a day for 14 days by gavage, vs vehicle
Description: In vivo experiments: 6- to 8-week-old BALB/c mice (18 to 20 g) were purchased from Beijing Life River Experimental Animal Technology Co., Ltd. (Beijing, China) and housed at the Experimental Animal Center of Nanjing University of Traditional Chinese Medicine. Animals were maintained at 22±2° C. on a regular 12h/12h light-dark cycle with free access to food and water. All animal experiments were approved by the Ethics Committee of Nanjing University of Traditional Chinese Medicine. Animal care was provided according to IACUC-approved guidelines.
Twenty-four hours after the last administration, the mice were anesthetized with pentobarbital sodium, from which blood samples were collected, and then the mice were euthanized. […].
Isolation of exosomes from mouse plasma: To obtain plasma for exosome isolation, blood was centrifuged at 500 g for 5 min at 4° C.; 2000 g for 15 min; and treated with a solution of 10000 g for 20 min to remove cells, debris and large vesicles. The crude exosome pellet was resuspended in 60 ml of cold PBS (Invitrogen), and then the exosome suspension was centrifuged at 100,000 g for 70 min at 4° C. For sucrose density gradient centrifugation, mix the washed exosome pellet with 2 mL of […] sucrose solution and add to a sucrose step gradient column (10 2 ml sucrose gradients from […] using 20 mM HEPES as diluent). […]

A549 cells = test: Exosome release from lung cancer cells (NTA, Western blot); type: cell-based, human
Description: as §1

[5] = Western blot, 0.1, 1 and 10 μM C52, 48 h
[6] = Western blot, 0.1, 1 and 10 μM C52, 48 h, extracellular
[7] = C52 low and medium doses (10 or 30 mg/kg), oral once a day, vs vehicle

Description for U87 cells: Western blotting: Exosomes from cultures in different conditions were collected and purified by a classical differential centrifugation protocol, and then lysed with PMSF-containing RIPA buffer (Beyond Biotechnology, Shanghai, China). The lysate was centrifuged to remove insoluble material. The concentration of protein was determined by enhanced BCA protein assay kit (Beyontian Biotechnology, Shanghai, China). 40 g of proteins were separated by sodium dodecyl sulfate-polyacrylamide gel electrophoresis (SDS-PAGE) and transferred to a polyvinylidene difluoride membrane (Merck Millipore). Membranes were blocked with 5% milk for 1 h and then incubated with primary antibodies overnight at 4° C. Membranes were washed 3 times and then incubated with secondary antibodies for 1 h at room temperature. Bands were detected by Gel Imaging System (Bio-Rad, USA) and measured by Image J. The primary antibodies used were rabbit anti-β-actin, GAPHD, CD63, CD9, TSG101 and vimentin (Abcam, UK).

O=C(Nc1ccc(F)cc1)Nc1ccc(Nc2nc(/C=C/c3ccccc3)nc(N3CCOCC3)n2)cc1 [Compound C52]
exosomes in culture supernatant (nanoparticle tracking analysis) (PANC-1 cells [1]; 1 μM C52 vs DMSO): significantly reduced
intracellular exosome levels (PANC-1 cells [1]; [5]): did not reduce
content of exosomal markers (CD9, CD63, TSG101) in prepared exosome samples (PANC-1 cells [1]; [6]): significant reduction
closure rate of the gap size (PANC-1 cells [2]): significantly decreased
disease activity index (DSS-induced colitis mice; vs vehicle): decreased
histological score (DSS-induced colitis mice; vs vehicle): very significant reduction
intestinal bleeding (DSS-induced colitis mice; vs vehicle): reduced
shortened colon length (DSS-induced colitis mice; vs vehicle): marked improvement
weight loss (DSS-induced colitis mice; vs vehicle): significantly less
ratio of Treg to CD4+ T cells in the mesenteric lymph nodes (DSS-induced colitis mice; vs vehicle control): significantly higher
amount of exosomal markers CD9 and CD63 inside the cells (U87 cells): did not reduce
extracellular levels of exosomal markers CD9 and CD63 (U87 cells): reduced
CD9 in the cell culture medium (U87 cells; vimentin-knockdown U87 Vim+/- cells, 2 μM C52, 72 h): further reduction
inhibition of GFP signal increase (Pseudovirus-2019-nCoV): as strong as that by the positive control
IC50 (Pseudovirus-2019-nCoV; read-out: IC50 of inhibition of pseudovirus infection): < 50 nM
effect on the growth of cancer cells [3]: no effect
animal weight loss (EAE mice; [7]): less weight loss; also recorded: reduced
clinical disease scores (EAE mice; [7]): lower; also recorded: improved
disease onset (EAE mice; [7]): relatively delayed
therapeutic effect in EAE (EAE mice; mouse, in vivo, po, 100 mg/kg): no therapeutic effect
effect on protein levels of vimentin and other signaling molecules involved in cell proliferation [4]: little or no effect
inhibition of exosome release (Huh7-NC12 cells): comparable to that of the known exosome inhibitor GW4869; also recorded: effectively inhibit the release of exosomes
exosomal markers CD63 and TSG101 in plasma exosomes (BALB/c mice): significantly decreased
exosomes in culture supernatant (nanoparticle tracking analysis) (A549 cells; 1 μM C52 vs DMSO): significantly reduced
intracellular exosome levels (A549 cells; [5]): did not reduce
content of exosomal markers (CD9, CD63, TSG101) in prepared exosome samples (A549 cells; [6]): significant reduction

— US20250041311A1, “Compound For Treating or Preventing Vimentin-Mediated Diseases” (Aluda Pharmaceuticals, Inc., priority 2021, published 2025)
